# Read-outs that look alike come from different tables or passages of the source.
# What was measured:
# [1] = Hydrophilic-lipophilic balance (Log P), phosphate-buffered saline / 1-octanol
# Protocol: The data were calculated using the standard spectrophotometric method [ref] based on the relationship:
# where A and A^1 are the absorption intensities before and after partitioning respectively and Vw and Vo are the respective volumes of the aqueous and 1-octanol phases. Determinations were repeated three times.
# [2] = test system: Enterococcus faecalis (NCIMB 13280); test: Antimicrobial screening, photobactericidal efficacy; format: cell-based; details: for Minimum bactericidal/fungicidal concentration E. faecalis Dark: foil-covered dark control; for Minimum bactericidal/fungicidal concentration E. faecalis Light: illuminated 20 min, LED 660 nm, 6.2 J cm^−2
# Protocol: (§1) The photobactericidal efficacies of the derivatives in addition to that of the known photosensitiser methylene blue were measured against both Gram positive Staphylococcus aureus (NCTC 6571) and Enterococcus faecalis (NCIMB 13280) and Gram negative Escherichia coli (NCTC 10418), Proteus mirabilis (NCIMB 5887) and a clinical strain of Klebsiella pneumoniae bacteria. Both strains were grown in Mueller-Hinton Broth and then diluted to a concentration of 10^6 colony-forming units/ml. Aliquots of the strains were then incubated for 1 hour at 37° C. in microtitre trays with various concentrations of photosensitiser in a range of from 100 to 3 μM, with zero photosensitiser concentrations in each case for control purposes. The trays were then either illuminated for twenty minutes using an array of light-emitting diodes (660 nm) giving a light dose of 6.2 J cm^−2 or alternatively foil-covered to provide dark controls. From each well showing an inhibition of growth of the micro-organism, 1 μl was sub-cultured on nutrient agar, using the Miles-Misra method, and incubated for 18 hours at 37° C. The minimum bactericidal concentrations were then determined as the lowest concentration for each photosensitiser giving no bacterial growth.
# [3] = test system: Escherichia coli (NCTC 10418); test: as above; format: cell-based
# Protocol: as §1
# [4] = test system: Proteus mirabilis (NCIMB 5887); test: as above; format: cell-based; details: for Minimum bactericidal/fungicidal concentration P. mirabilis Dark: foil-covered dark control; for Minimum bactericidal/fungicidal concentration P. mirabilis Light: illuminated 20 min, LED 660 nm, 6.2 J cm^−2
# Protocol: as §1
# [5] = test system: Staphylococcus aureus (NCTC 6571); test: as above; format: cell-based
# Protocol: as §1
# [6] = test system: clinical strain of Klebsiella pneumoniae; test: as above; format: cell-based; details: for Minimum bactericidal/fungicidal concentration K. pneumoniae Dark: foil-covered dark control; for Minimum bactericidal/fungicidal concentration K. pneumoniae Light: illuminated 20 min, LED 660 nm, 6.2 J cm^−2
# Protocol: as §1
# [7] = test system: Candida albicans (NCPF 8179); test: Antifungal screening; format: cell-based; details: Sabouraud broth and agar; for Minimum bactericidal/fungicidal concentration C. albicans Dark: foil-covered dark control; for Minimum bactericidal/fungicidal concentration C. albicans Light: illuminated 20 min, LED 660 nm, 6.2 J cm^−2
# [8] = Singlet oxygen production (TPCPD decolourisation in dichloromethane); details: singlet oxygen yield relative to methylene blue (= 1.0), time for 50% decrease in TPCPD absorption at 500 nm
# Source text: Thus the decrease in absorption at 500 nm was monitored spectrophotometrically with time using the method described by Cincotta et al. in “Novel red absorbing benzo[α]phenoxazinium and benzo[α]phenothiazinium photosensitizers: in vitro evaluation”, Photochem. […] To calculate the singlet oxygen yield for the derivative compounds of the present invention (ΦΔDer), the following formula was used:
# [9] = value given for the standard photosensitiser; cited from earlier work
# [10] = partition between phosphate-buffered saline and 1-octanol, spectrophotometric method, repeated three times
# [11] = foil-covered dark control, read-out: Minimum Bactericidal Concentration E. coli (Dark)
# [12] = illuminated 20 min, LED 660 nm, 6.2 J cm^−2, 1 h incubation at 37° C., read-out: Minimum Bactericidal Concentration E. coli (Light)
# [13] = foil-covered dark control, read-out: Minimum Bactericidal Concentration S. aureus (Dark)
# [14] = illuminated 20 min, LED 660 nm, 6.2 J cm^−2, 1 h incubation at 37° C., read-out: Minimum Bactericidal Concentration S. aureus (Light)
# [15] = Escherichia coli, NCTC10418, foil-covered dark control, read-out: Minimum Bactericidal Concentration E. coli (Dark)
# [16] = Escherichia coli, NCTC10418, illuminated 20 min, LED 660 nm, 6.2 J cm^−2, 1 h incubation at 37° C., read-out: Minimum Bactericidal Concentration E. coli (Light)
# [17] = Staphylococcus aureus, NCTC6571, foil-covered dark control, read-out: Minimum Bactericidal Concentration S. aureus (Dark)
# [18] = Staphylococcus aureus, NCTC6571, illuminated 20 min, LED 660 nm, 6.2 J cm^−2, 1 h incubation at 37° C., read-out: Minimum Bactericidal Concentration S. aureus (Light)
# [19] = phosphate-buffered saline / 1-octanol
Compound,"logP [1, 10]",Minimum bactericidal/fungicidal concentration E. faecalis Dark [2] [µM],Minimum bactericidal/fungicidal concentration E. faecalis Light [2] [µM],"MBC [3, 11] [µM]","MBC [3, 12] [µM]",Minimum bactericidal/fungicidal concentration P. mirabilis Dark [4] [µM],Minimum bactericidal/fungicidal concentration P. mirabilis Light [4] [µM],"MBC [5, 13] [µM]","MBC [5, 14] [µM]",Minimum bactericidal/fungicidal concentration K. pneumoniae Dark [6] [µM],Minimum bactericidal/fungicidal concentration K. pneumoniae Light [6] [µM],Minimum bactericidal/fungicidal concentration C. albicans Dark [7] [µM],Minimum bactericidal/fungicidal concentration C. albicans Light [7] [µM],Relative ΦΔ [8],"MBC [3, 15] [µM]","MBC [3, 16] [µM]","MBC [5, 17] [µM]","MBC [5, 18] [µM]","logP [1, 19]",singlet oxygen yield (ΦΔMB) [9]
3-(Di-n-hexylamino)-7-((2-(diethylamino)ethyl)(ethyl)amino)phenothiazinium iodide [Example 7b],+1.25,100,0.19,25,6.25,100,0.39,12.5,3.125,100,0.19,25,3.13,0.4,,,,,,
"CO[Si](CCCNc1ccc2nc3ccc(N(C)C)cc3[s+]c2c1)(OC)OC [Example 2b, 3-(3-Trimethoxsilylpropyl)amino-7-dimethylaminophenothiazinium hydrogensulphate]",,50,0.78,,,100,1.56,,,100,1.56,25,3.13,,,,,,,
"CN(C)CCCN(CCCN(C)C)c1ccc2nc3ccc(N(CCCN(C)C)CCCN(C)C)cc3[s+]c2c1 [Example 4a, 3,7-Bis(bis(3-(dimethylamino)propyl)amino)phenothiazinium bromide]",,,,,,,,,,,,,,,12.5,3.12,6.25,3.12,,
"CCN(CC)CCCN(CCCN(CC)CC)c1ccc2nc3ccc(N(CCCN(CC)CC)CCCN(CC)CC)cc3[s+]c2c1 [Example 4b, 3,7-Bis(bis(3-(diethylamino)propyl)amino)phenothiazinium bromide]",,,,,,,,,,,,,,,100,25,100,50,0.11,
"CCN(CC)CCN(C)c1ccc2nc3ccc(N(C)CCN(CC)CC)cc3[s+]c2c1 [Example 4f, 3,7-Bis((2-(diethylamino)ethyl)(methyl)amino)phenothiazinium bromide]",,,,,,,,,,,,,,0.6,> 100,3.12,> 100,6.25,0.27,
"CCN(CC)CCCC(C)Nc1ccc2nc3ccc(N(CC)CC)cc3[s+]c2c1 (stereo not drawn) [Example 7a, 3-(Diethylamino)-7-(5-(diethylamino)pentan-2-ylamino)phenothiazinium iodide]",,,,,,,,,,,,,,0.2,100,50,100,25,0.65,
"CCCCN(CCCC)c1ccc2nc3ccc(N(CC)CCN(CC)CC)cc3[s+]c2c1 [Example 7c, 3-(Di-n-butylamino)-7-((2-(diethylamino)ethyl)(ethyl)amino)phenothiazinium iodide]",,6.25,0.39,,,100,0.78,,,100,6.25,25,3.13,0.3,25,6.25,25,12.5,1.09,
"CCN(CC)CCN(C)c1ccc2nc3ccc(N(CC)CC)cc3[s+]c2c1 [Example 7d, 3-(Diethylamino)-7-((2-(diethylamino)ethyl)(methyl)amino)phenothiazinium iodide]",,,,,,,,,,,,,,1.4,100,50,50,25,0.74,
"CCCN(CCC)c1ccc2nc3ccc(N(CCCN(C)C)CCCN(C)C)cc3[s+]c2c1 [Example 7e, 3-(Bis(3-(dimethylamino)propyl)amino)-7-(di-n-propylamino)phenothiazinium iodide]",,100,0.19,,,100,0.39,,,100,3.13,100,3.13,,> 100,3.12,> 100,3.12,,
OCCN(CCO)c1ccc2nc3ccc(NCCCN4CCOCC4)cc3[s+]c2c1.[I-] [Example 7f],+0.57,,,50,25,,,25,25,,,,,0.2,,,,,,
"CCCCN(CCCC)c1ccc2nc3ccc(N4CCN(CCN5CCN(c6ccc7nc8ccc(N(CCCC)CCCC)cc8[s+]c7c6)CC5)CC4)cc3[s+]c2c1.[I-].[I-] [Example 7g, 7,7′-(4,4′-(ethane-1,2-diyl)bis(piperazine-4,1-diyl))bis(3-(dibutylamino)phenothiazin-5-ium)iodide]",,12.5,1.56,,,100,0.78,,,100,3.13,25,3.13,,,,,,,
"CN(C)c1ccc2nc3ccc(N(C)C)cc3[s+]c2c1 [Methylene blue, reference compound]",,,,,,,,,,,,,,1.00,,25,,25,,0.443
